Data reported in BigSolDB 2.1.

CC(C)C[C@H](NC(=O)OCC1c2ccccc2-c2ccccc21)C(=O)O
solubility (mole fraction)
Settings	in acetone	in acetonitrile	in ethanol	in ethyl acetate	in isopropanol	in methanol	in methyl acetate	in n-butanol	in n-propanol
283.15 K	0.0724	0.00333	0.0256	0.0468	0.0166	0.0288	0.0246	0.0198	0.0218
288.15 K	0.0773	0.00382	0.0284	0.0496	0.0185	0.033	0.0279	0.0216	0.0245
293.15 K	0.0838	0.0047	0.0324	0.0536	0.0209	0.0384	0.0318	0.0258	0.0278
298.15 K	0.0927	0.0055	0.0379	0.0607	0.0272	0.0455	0.0372	0.0295	0.0317
303.15 K	0.101	0.00689	0.0443	0.0692	0.0352	0.0543	0.0428	0.0354	0.0372
308.15 K	0.108	0.00832	0.0522	0.0782	0.0441	0.0621	0.0487	0.0456	0.0464
313.15 K	0.117	0.0104	0.0614	0.0862	0.0551	0.0771	0.0554	0.0565	0.0574
318.15 K	0.131	0.0126	0.0716	0.0961	0.0687	0.106	0.063	0.0687	0.0691
323.15 K	0.142	0.0166	0.0854	0.106	0.0844	0.137	0.0711	0.086	0.0853
